The record followed here is patent US7425640B2, “Substituted 5-carboxyamide pyrazoles and [1,2,4]triazoles as antiviral agents” (priority 2004, dated 2008).

The target in one assay is HCV RNA-dependent RNA polymerase NS5B (Δ21) (Hepatitis C virus genotype 1b, UniProt P26663). The assay is described as follows: Assay for HCV RNA-dependent RNA polymerase activity (SPA, [3H]-GTP incorporation). The following applies: read-out: Δ21 Activity (IC50 μM); 50 nM NS5B (Δ21), class symbols. It is filed as biochemical. In outline: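 NS5B (Δ21), 50 nM, was incubated 3 h at room temperature with biotinylated oligoG12/polyC template, 5 μM GTP plus [3H]-GTP, in HEPES pH 7.3 with MgCl2 and NaCl. [3H]-GTP incorporation was read by streptavidin SPA. IC50 came from single experiments across 11 two-fold dilutions (0.05–50 μM).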
Chain of HCV RNA-dependent RNA polymerase NS5B (Δ21) (P26663 2420-2989, stated change not applied): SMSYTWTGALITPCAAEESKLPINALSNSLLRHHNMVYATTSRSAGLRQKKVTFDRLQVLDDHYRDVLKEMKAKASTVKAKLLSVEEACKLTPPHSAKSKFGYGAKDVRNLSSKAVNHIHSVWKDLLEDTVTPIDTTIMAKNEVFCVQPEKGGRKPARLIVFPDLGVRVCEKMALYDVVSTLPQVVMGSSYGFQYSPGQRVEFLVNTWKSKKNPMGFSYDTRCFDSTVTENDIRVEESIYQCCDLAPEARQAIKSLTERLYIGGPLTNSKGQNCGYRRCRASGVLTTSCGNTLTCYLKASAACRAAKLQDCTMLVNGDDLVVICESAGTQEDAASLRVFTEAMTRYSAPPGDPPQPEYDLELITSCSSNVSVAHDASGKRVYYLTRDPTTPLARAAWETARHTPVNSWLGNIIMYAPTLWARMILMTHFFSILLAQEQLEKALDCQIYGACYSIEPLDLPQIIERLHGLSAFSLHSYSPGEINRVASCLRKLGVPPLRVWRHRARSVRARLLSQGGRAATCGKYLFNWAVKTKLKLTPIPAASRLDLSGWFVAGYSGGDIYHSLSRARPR
The IC50 is the concentration at which inhibition is half-maximal. Take `CC(C)(C)OC(=O)CNC(=O)c1cc(C(=O)N[C@H]2CCCC[C@@H]2OCc2ccccc2)n(CC(=O)N[C@H]2CCCC[C@@H]2OCc2ccccc2)n1` [Compound 105]: the half-maximal inhibitory concentration (IC50) fell in the range of 0.1 to 1 µM.

Take `CC(C)(NC(=O)c1cc(C(=O)N[C@H]2CCCC[C@@H]2OCc2ccccc2)n(CC(=O)N[C@H]2CCCC[C@@H]2OCc2ccccc2)n1)c1ccccc1` [Compound 52]: the IC50 was in the range of 0.1 to 1 µM. Take `CC(C)NC(=O)Nc1cc(C(=O)N[C@H]2CCCC[C@@H]2OCc2ccccc2)n(CC(=O)N[C@H]2CCCC[C@@H]2OCc2ccccc2)n1` [Compound 167]: the half-maximal inhibitory concentration (IC50) lay in the range of 0.1 to 1 µM.

With `O=C(Cn1nc(C(=O)NCC2CC2)cc1C(=O)N[C@H]1CCCC[C@@H]1OCc1ccccc1)N[C@H]1CCCC[C@@H]1OCc1ccccc1` [Compound 100], the IC50 was 0.1 to 1 µM.

With `O=C(Cn1nc(C(=O)NCc2ccc(C(F)(F)F)cc2)cc1C(=O)N[C@H]1CCCC[C@@H]1OCc1ccccc1)N[C@H]1CCCC[C@@H]1OCc1ccccc1` [Compound 127], the IC50 was in the range of 0.1 to 1 µM. With `O=C(Cn1nc(C(=O)O)nc1C(=O)Nc1ccccc1OCC1CCCCC1)N[C@H]1CCCC[C@@H]1OCc1ccccc1` [Compound 59], the half-maximal inhibitory concentration (IC50) is 0.1 to 1 µM. With `Cc1ccc(OCC2CC2)c(NC(=O)Cn2nc(C(=O)O)cc2C(=O)N[C@H]2CCCC[C@@H]2OCc2ccccc2)c1` [Compound 56], the 50% inhibitory concentration (IC50) lay within 0.1 to 1 µM. On the same count and under the same terms, with `O=C(Cn1nc(NS(=O)(=O)c2cccc(Cl)c2)cc1C(=O)N[C@H]1CCCC[C@@H]1OCc1ccccc1)N[C@H]1CCCC[C@@H]1OCc1ccccc1` [Compound 80] the figure was 0.1 to 1 µM. As for `O=C(Cn1nc(C(=O)O)cc1C(=O)N[C@@H]1CCCC[C@@H]1OCc1ccccc1)N[C@H]1CCCC[C@H]1OCc1ccccc1` [Compound 132], the IC50 fell in the range of 0.1 to 1 µM. Regarding `O=C(Cn1nc(C(=O)N2CCc3ccccc3C2)cc1C(=O)N[C@H]1CCCC[C@@H]1OCc1ccccc1)N[C@H]1CCCC[C@@H]1OCc1ccccc1` [Compound 51], the IC50 is 0.1 to 1 µM.

For `O=C(Cn1nc(C(=O)NOCC2CC2)cc1C(=O)N[C@H]1CCCC[C@@H]1OCc1ccccc1)N[C@H]1CCCC[C@@H]1OCc1ccccc1` [Compound 72], the IC50 lay in the range of 0.1 to 1 µM. The same measure, in the same setting: with `O=C(Cn1nccc1C(=O)N[C@H]1CCCC[C@@H]1OCc1ccccc1)N[C@H]1CCCC[C@@H]1OCc1ccccc1` [Compound 134] the figure was 0.1 to 1 µM; with `O=C(Cn1nc(C(=O)O)cc1C(=O)N[C@H]1CCCC[C@@H]1OCc1ccccc1)Nc1ncccc1Oc1ccccc1` [Compound 160], 0.1 to 1 µM; with `O=C(Cn1nc(O)cc1C(=O)N[C@H]1CCCC[C@@H]1OCc1ccccc1)N[C@H]1CCCC[C@@H]1OCc1ccccc1` [Compound 69], 0.1 to 1 µM.

With `O=C(Cn1nc(NS(=O)(=O)c2ccc(F)cc2Cl)cc1C(=O)N[C@H]1CCCC[C@@H]1OCc1ccccc1)N[C@H]1CCCC[C@@H]1OCc1ccccc1` [Compound 71], the IC50 fell in the range of 0.1 to 1 µM. On the same count and under the same terms, as for `C[C@@H](NC(=O)c1cc(C(=O)NC2CCCCC2OCc2ccccc2)n(CC(=O)N[C@H]2CCCC[C@@H]2OCc2ccccc2)n1)c1cccc2ccccc12` (some centres unmarked) [Compound 74], the figure is 0.1 to 1 µM; as for `O=C(Cn1nc(NS(=O)(=O)c2cc(Cl)ccc2Cl)cc1C(=O)N[C@H]1CCCC[C@@H]1OCc1ccccc1)N[C@H]1CCCC[C@@H]1OCc1ccccc1` [Compound 96], 0.1 to 1 µM; as for `O=C(Cn1nc(C(=O)Nc2ccccc2)cc1C(=O)N[C@H]1CCCC[C@@H]1OCc1ccccc1)N[C@H]1CCCC[C@@H]1OCc1ccccc1` [Compound 54], 0.1 to 1 µM. Turning to `C=CCNC(=O)c1cc(C(=O)N[C@H]2CCCC[C@@H]2OCc2ccccc2)n(CC(=O)N[C@H]2CCCC[C@@H]2OCc2ccccc2)n1` [Compound 111], the 50% inhibitory concentration (IC50) lay within 0.1 to 1 µM.

For `O=C(Cn1nc(NS(=O)(=O)c2cccc3cccnc23)cc1C(=O)N[C@H]1CCCC[C@@H]1OCc1ccccc1)N[C@H]1CCCC[C@@H]1OCc1ccccc1` [Compound 144], the concentration for half-maximal inhibition (IC50) lay in the range of 0.1 to 1 µM.

Consider `CC(C)(C)OC(=O)c1cc(C(=O)N[C@H]2CCCC[C@@H]2OCc2ccccc2)n(CC(=O)N[C@H]2CCCC[C@@H]2OCc2ccccc2)n1` [Compound 65], for which the half-inhibitory concentration (IC50) lay in the range of 0.1 to 1 µM. For `Cc1ccc(OCc2ccccc2)c(NC(=O)c2cc(C(N)=O)nn2CC(=O)N[C@H]2CCCC[C@@H]2OCc2ccccc2)c1` [Compound 98], the IC50 is 0.1 to 1 µM. `O=C(Cn1nc(C(=O)N2CCN(Cc3ccccc3)CC2)cc1C(=O)N[C@H]1CCCC[C@@H]1OCc1ccccc1)N[C@H]1CCCC[C@@H]1OCc1ccccc1` [Compound 156]: the IC50 fell in the range of 0.1 to 1 µM. On to `CCOC(=O)c1cc(C(=O)N[C@@H]2CCCC[C@@H]2OCc2ccccc2)n(CC(=O)N[C@H]2CCCC[C@H]2OCc2ccccc2)n1` [Compound 139], for which the IC50 was 0.1 to 1 µM.

As to `CCOC(=O)c1nc(C(=O)N[C@H]2CCCC[C@@H]2OCc2ccccc2)n(CC(=O)N[C@H]2CCCC[C@@H]2OCc2ccccc2)n1` [Compound 141], the IC50 was 0.1 to 1 µM. Same read-out and setting: with `O=C(O)CNC(=O)c1cc(C(=O)N[C@H]2CCCC[C@@H]2OCc2ccccc2)n(CC(=O)N[C@H]2CCCC[C@@H]2OCc2ccccc2)n1` [Compound 153] the figure was 0.1 to 1 µM; with `O=C(Cn1nc(NC(=O)NCc2ccccc2)cc1C(=O)N[C@H]1CCCC[C@@H]1OCc1ccccc1)N[C@H]1CCCC[C@@H]1OCc1ccccc1` [Compound 121], 0.1 to 1 µM; with `O=C(Cn1nc(C(=O)NCc2cccnc2)cc1C(=O)N[C@H]1CCCC[C@@H]1OCc1ccccc1)N[C@H]1CCCC[C@@H]1OCc1ccccc1` [Compound 142], 0.1 to 1 µM. Still for that read-out and setting: as for `O=C(Cn1nc(C(=O)NCc2ccccc2)cc1C(=O)N[C@H]1CCCC[C@@H]1OCc1ccccc1)N[C@H]1CCCC[C@@H]1OCc1ccccc1` [Compound 50], the figure is 0.1 to 1 µM.

The same assay, now with this note: Δ21 Activity (IC50 μM), 50 nM NS5B (Δ21), class symbols.
Compound `O=C(Cn1nc(C(=O)NCc2cccc3ccccc23)cc1C(=O)N[C@H]1CCCC[C@@H]1OCc1ccccc1)N[C@H]1CCCC[C@@H]1OCc1ccccc1` [Compound 22] yielded an IC50 of 0.05 to 0.1 µM.

Compound `O=C(Cn1nc(NS(=O)(=O)c2ccccc2F)cc1C(=O)N[C@H]1CCCC[C@@H]1OCc1ccccc1)N[C@H]1CCCC[C@@H]1OCc1ccccc1` [Compound 37] showed a half-inhibitory concentration (IC50) of 0.05 to 0.1 µM. `N#Cc1cc(C(=O)N[C@H]2CCCC[C@@H]2OCc2ccccc2)n(CC(=O)N[C@H]2CCCC[C@@H]2OCc2ccccc2)n1` (stereo in doubt) [Compound 187, 2-[(2-benzyloxy-cyclohexylcarbamoyl)-methyl]-5-cyano-2H-pyrazole-3-carboxylic acid (2-benzyloxy-cyclohexyl)-amide] had an IC50 of more than 1 µM. On the same count and under the same terms, as for `O=C(Cn1nc(C(=O)NCCCN2CCCC2=O)cc1C(=O)N[C@H]1CCCC[C@@H]1OCc1ccccc1)N[C@H]1CCCC[C@@H]1OCc1ccccc1` [Compound 168], the figure is more than 1 µM; as for `CC(C)(C)OC(=O)Nc1cc(C(=O)N[C@H]2CCCC[C@@H]2OCc2ccccc2)n(CC(=O)N[C@H]2CCCC[C@@H]2OCc2ccccc2)n1` [Compound 172], more than 1 µM; as for `N#CNC(=O)c1cc(C(=O)N[C@H]2CCCC[C@@H]2OCc2ccccc2)n(CC(=O)N[C@H]2CCCC[C@@H]2OCc2ccccc2)n1` [Compound 15], less than 0.05 µM. The compound `CCOC(CCCNC(=O)c1cc(C(=O)N[C@H]2CCCC[C@@H]2OCc2ccccc2)n(CC(=O)NC2CCCC[C@@H]2OCc2ccccc2)n1)OCC` (some centres unmarked) [Compound 195] gave a concentration for half-maximal inhibition (IC50) of more than 1 µM.

The compound `CN(C)S(=O)(=O)Nc1cc(C(=O)N[C@H]2CCCC[C@@H]2OCc2ccccc2)n(CC(=O)N[C@H]2CCCC[C@@H]2OCc2ccccc2)n1` [Compound 45] came in with an IC50 of 0.05 to 0.1 µM. The compound `O=C(Cn1nc(C(=O)NCCO)cc1C(=O)N[C@H]1CCCC[C@@H]1OCc1ccccc1)N[C@H]1CCCC[C@@H]1OCc1ccccc1` [Compound 191] displayed an IC50 of more than 1 µM. In the case of `O=C(Cn1nc(NS(=O)(=O)c2ccc(F)cc2)cc1C(=O)N[C@H]1CCCC[C@@H]1OCc1ccccc1)N[C@H]1CCCC[C@@H]1OCc1ccccc1` [Compound 35], the IC50 was in the range of 0.05 to 0.1 µM. Still for that read-out and setting: with `CN(C)C(=O)c1cc(C(=O)N[C@H]2CCCC[C@@H]2OCc2ccccc2)n(CC(=O)NC2CCCC[C@@H]2OCc2ccccc2)n1` (some centres unmarked) [Compound 197] the figure was more than 1 µM. In turn, `O=C(Cn1nc(C(=O)O)cc1C(=O)N[C@H]1CCCC[C@@H]1OCc1ccccc1)NC1CCC[C@@H]1Sc1ccccc1` (some centres unmarked) [Compound 169] gave an IC50 of more than 1 µM. With `O=C(Cn1nc(C(=O)O)cc1C(=O)Nc1cc(Cl)ccc1OCC1CCCCC1)N[C@H]1CCCC[C@@H]1OCc1ccccc1` [Compound 3], the half-inhibitory concentration (IC50) was less than 0.05 µM. As to `CCOC(=O)c1cc(C(=O)N[C@H]2CCCC[C@@H]2OCc2ccccc2)n(CC(=O)N(C)[C@H]2CCCC[C@@H]2OCc2ccccc2)n1` [Compound 178], the half-maximal inhibitory concentration (IC50) was more than 1 µM. Turning to `O=C(Cn1nc(C(=O)NC2CCN(Cc3ccccc3)CC2)cc1C(=O)N[C@H]1CCCC[C@@H]1OCc1ccccc1)N[C@H]1CCCC[C@@H]1OCc1ccccc1` [Compound 192], the concentration for half-maximal inhibition (IC50) is more than 1 µM. The compound `O=C(Cn1nc(C(=O)O)cc1C(=O)Nc1cc(Br)ccc1OCC1CCCCC1)N[C@H]1CCCC[C@@H]1OCc1ccccc1` [Compound 12] showed an IC50 of less than 0.05 µM. For `Cc1ccc(OCC2CCCCC2)c(NC(=O)c2cc(C(=O)O)nn2CC(=O)N[C@H]2CCCC[C@@H]2OCc2ccccc2)c1` [Compound 5], the IC50 is less than 0.05 µM. Still for that read-out and setting: as for `CC(C)NC(=O)c1cc(C(=O)N[C@H]2CCCC[C@@H]2OCc2ccccc2)n(CC(=O)N[C@H]2CCCC[C@@H]2OCc2ccccc2)n1` [Compound 163], the figure is more than 1 µM.

The same assay, now with this note: Δ21 Activity (IC50 μM), 50 nM NS5B (Δ21), numeric values.
`O=C(Cn1nc(C(=O)O)cc1C(=O)Nc1cc(Cl)ccc1OCC1CCCCC1)N[C@H]1CCCC[C@@H]1OCc1ccccc1` [drawing 242] yielded a concentration for half-maximal inhibition (IC50) of 0.02 µM. Take `COc1cccc(NC(=O)c2cc(C(=O)N[C@H]3CCCC[C@@H]3OCc3ccccc3)n(CC(=O)N[C@H]3CCCC[C@@H]3OCc3ccccc3)n2)c1` [drawing 255]: the IC50 stood at 0.045 µM.

Turning to `Cc1ccc(OCC2CCCCC2)c(NC(=O)c2cc(C(=O)O)nn2CC(=O)N[C@H]2CCCC[C@@H]2OCc2ccccc2)c1` [drawing 244], the 50% inhibitory concentration (IC50) amounted to 0.033 µM.
